Measured values: patent US6649793B1, “Process for the preparation of a N,N-diamino amino acid-β-hydroxy disuccinic acid” (Board of Trustees of Michigan State University, priority 2002, dated 2003)

Assay: Potentiometric calcium titration with calcium-selective electrode (calcium binding / chelation)
Format: physicochemical
Conditions: Ca2+ binding; 50 mL of 200 ppm hardness solution at 25° C.; NH4Cl/NH4OH buffer pH=9.5, ionic strength 0.1M
Procedure: Calcium chloride dihydrate was purchased from Fisher Scientific. A stock solution of 0.01M […] (1000 ppm, hardness CaCO3) was prepared with distilled deionized water, and 0.03M NH4Cl/0.07M NH4OH buffer (pH=9.5, ionic strength of 0.1M). The later chemicals were obtained from Columbus Chemical Industries, Inc. Standard solution ranging from 200 ppm to 10 ppm was prepared by dilution of the stock solution with the buffer. A plot of the logarithm of calcium ion concentration vs the normalized potential was constructed prior to each titration (Rechnitz, G. A., et al., Anal. Chem. 40 696 (1968); and Nagarajan, M. K., et al., JAOCS 61 1475 (1984)). This was necessary to minimize the effect of signal fluctuations due to solution condition (ionic strength, pH, and the like). […]
The electrode was immersed in a 50 mL of 200 ppm hardness solution at 25° C., and the meter reading was taken while the solution was being stirred by magnet (Blay, J. A., et al., Anal. Lett. 4, 653 (1971)). The calcium binding solution of Compound II was added in small increments and the equilibrium-free calcium ion concentration were measured. When the meter reading indicated less than 10 ppm present in solution, the titration was stopped. […] Chelation constant (logK) of compound II was determined to be 4.23±0.09 according to the following equation [formula] […]

SMILES: O=C(O)C(O)C(NCCCC[C@H](NC(C(=O)O)C(O)C(=O)O)C(=O)O)C(=O)O (stereo partly drawn) [compound II, 2N,6N-lysine-β-hydroxy disuccinic acid]
- Chelation constant (logK): 4.23±0.09
